Data published in US20060160114A1, “Reagents and methods for predicting drug resistance” (Oncotech, Inc., priority 2004, published 2006).

System: tumor cells from patient tumor samples
Experiment: Extreme Drug Resistance (EDR) assay, tritiated thymidine incorporation in soft agarose culture
Assay type: cell-based, human
Conditions: supratoxic dose 33 μM, positive (background) control group
Protocol: In the practice of this assay, tumor cells are taken from a cancer biopsy and exposed to cancer chemotherapeutics in culture. During the culture period, radioactive thymidine is added, which is incorporated into the DNA of growing and dividing cancer cells (which are thus resistant to the cytostatic or cytotoxic effects of the cancer chemotherapeutic). Tritiated thymidine is not incorporated into cells that are sensitive to the drug and reduce or suspend growth and division in response to the drug. […] By measuring the amount of radioactivity in a sample, the assay determines the relative resistance of an individual patient's cancer cells to a number of different chemotherapies. […]
The EDR assay is an agarose-based culture system, using tritiated thymidine incorporation to define in vitro drug response. […] The radioactivity trapped on the filters was counted with an LS-6500 scintillation Counter (Beckman, Fullerton, Calif.). […] Detectable radioactivity for this group was considered non-specific background related to debris trapping of tritiated thymidine on the filter. After subtracting background control values, percent control inhibition (PCI) of proliferation was determined by comparing thymidine incorporation by the treatment group with incorporation by the negative control group: PCI=100%×[1−(CPM treatment group/CPM control group)]. […]

N.N.[Cl][Pt][Cl] [Cisplatin]
cell death: 100%
